The values that follow come from patent US8975259B2, “Compositions and methods for inhibiting G protein signaling” (University of Rochester, priority 2007, dated 2015).

The subject of assay [1] is differentiated HL60 cells. Kind of assay: GM-CSF-induced chemotaxis of differentiated HL60 cells (Boyden chamber). The settings on record: 10 μM compound, 1 μM GM-CSF; result in words. Format: cell-based, human. The procedure: (§1) Differentiated HL60 cells (200 k) were pretreated with 10 μM concentrations of the indicated compound, challenged with 250 nM fMLP, and assayed for chemotaxis in a Boyden chamber for 1 h at 37° C. […] Chemotaxis was quantified as above by subtracting out background cells (0-10 cells) in the absence of chemoattractant to obtain total transmigrated cells (−100 cells GM-CSF+vehicle) and represented as the percentage of GM-CSF-treated control cells. No statistically significant difference from control was seen by ANOVA. […] Primary human neutrophils were isolated from whole blood to ≧80% purity. […] Chemotaxis was quantified as above by subtracting out background cells to obtain total transmigrated cells and represented as the percentage of fMLP-treated control cells. […]
(§2) Chemotaxis was assayed using a Boyden chamber (Neuro Probe, Gaithersburg, Md.) using 3-μm polyvinylpyrrolidone-free polycarbonate filters (Neuro Probe). […] Chemotactic HL60 cells were scored by counting three microscope fields and subtracting the number of cells from fMLP wells as background. […] For all the small molecules, effects of the compounds on chemokinesis was analyzed by measuring chemotaxis in the presence of 250 nM fMLP in both the upper and lower chambers of the Boyden Chamber and measuring changes in transwell migration. […]

Assay [2] concerns primary human neutrophils. Kind of assay: IL-8-induced chemotaxis of primary human neutrophils (Boyden chamber). Format: cell-based. To be noted: 10 μM compound, 10 nM IL-8; result in words. How it is done:
as §1, §2

For assay [3], the system named is M3 muscarinic receptor-dependent Ca2+ release in HEK-293 cells. Kind of assay: Carbachol-dependent Ca2+ release in HEK-293 cells expressing M3 muscarinic receptor. The settings on record: 10 μM; result in words. Format: cell-based.
The next assay has as its system PLCβ2. The experiment in a line: Gβ1γ2-dependent activation of purified PLCβ2. Format: biochemical. How it is done:
(§3) Purified PLCβ2 (0.25 ng) was assayed in the presence (▴) or absence (▪) of 100 nM purified Gβ1γ2. […] Assays contained 10 ng of purified p101/p110 PI3Kγ heterodimer with or without 100 nM purified Gβ1γ2. Left panel: (▴) 100 nM Gβ1γ2 or (▪) no βγ. […] M119 or M201 and 25 nM purified GRK2 were added simultaneously to 250 nM biotinylated Gβ1γ2 (bGβ1γ2) immobilized on streptavidin agarose. GRK2 was detected with antibody to GRK2. Data are representative (mean ±SEM, except D) repeated at least three times each. […] 30 nM bGβ1γ2 was incubated with either 30 nM PLCβ2 or PLCβ3 in the presence or absence of M119 or M201 for 16 h at 4° C. before precipitation with avidin agarose and detection with PLCβ2,or Gβ antibodies. […] Same as 4E with PLCβ3.
The ability of NSC119910 analogs to selectively modulate activation PLC-β2 and -β3 was analyzed. In this assay, PLC-β2 and PLC-β3 were purified and PLC enzymatic activity was measured in the presence or absence of purified βy and in the presence or absence of analog.
Nevertheless, M119 and M201 were tested in in vitro reconstitution assays of Gβγ-dependent activation of PLCβ2, PLCβ3 and PI3Kγ and binding to GRK2. […] These are only two of multiple diverse compounds identified, indicating potential for multiple modes of Gβγ-dependent target modulation by these small molecules.

For another assay, the target named is T1, PLCβ3-bGβ1γ2 interaction (UniProt P54311+P63212).
T1 construct: made in house; host or cells: bGβ1γ2: Sf9 insect cells
T1 sequence (P54311 whole entry): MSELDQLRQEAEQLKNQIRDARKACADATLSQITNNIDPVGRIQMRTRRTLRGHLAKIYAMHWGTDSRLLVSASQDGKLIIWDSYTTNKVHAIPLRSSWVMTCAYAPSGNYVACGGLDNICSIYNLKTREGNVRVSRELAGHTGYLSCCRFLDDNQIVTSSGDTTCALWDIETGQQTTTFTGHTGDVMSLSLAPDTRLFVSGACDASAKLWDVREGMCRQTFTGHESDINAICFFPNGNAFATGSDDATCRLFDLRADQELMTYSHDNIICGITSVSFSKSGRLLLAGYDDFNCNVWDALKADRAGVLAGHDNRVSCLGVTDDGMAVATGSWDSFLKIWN
T1 sequence (P63212 2-68 limits assumed): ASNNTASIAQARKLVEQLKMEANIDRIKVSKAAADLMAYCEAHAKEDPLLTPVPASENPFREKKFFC
The experiment in a line: PLCβ3 binding to biotinylated Gβ1γ2 (avidin agarose precipitation). To be noted: M119 10 μM, M201 1 μM; result in words. The procedure:
as §3

Assay [4] concerns morphine-dependent antinociception in PLCβ3 −/− mice. Kind of assay: 55° C. tail-flick antinociception in PLCβ3 −/− mice. In kind it is in vivo, mouse. To be noted: 100 nmol i.c.v.; result in words.
For assay [5], the system named is naloxone-precipitated morphine withdrawal in mice. The experiment in a line: Acute morphine physical dependence (naloxone-precipitated jumping). Format: in vivo, mouse. The settings on record: morphine 100 mg/kg s.c. −4 hr; M119 100 nmol i.c.v. 30 min before naloxone 10 mg/kg i.p. How it is done:
Prior to the administration of naloxone (30 min) mice were injected with vehicle, i.c.v. Withdrawal was precipitated by an injection of the opioid antagonist, naloxone (10 mg/kg, i.p.). Mice were immediately placed in a clear cylinder and observed for 15 min. The number of vertical jumps was recorded during this time.

The next assay concerns the target Gβ1γ2 (UniProt P54311+P63212). Also noted: made in house; host or cells: Sf9 insect cells (baculovirus; co-expressed with BirA and (His)6-Gαi1, from which βγ was eluted). To be noted: Table 20, competition ELISA for SIGK binding; data from Bonacci et al. (2006); cited from earlier work. (An ELISA detects its analyte on a solid surface through an enzyme-linked reagent.)

Chain of Gβ1γ2 (P54311 whole entry): as the sequence (P54311 whole entry) above
Chain of Gβ1γ2 (P63212 2-68 limits assumed): as the sequence (P63212 2-68 limits assumed) above

`O=C(O)c1ccccc1-c1c2ccc(=O)c(O)c-2oc2c(O)c(O)ccc12` (racemic) [Gallein]: the “effect on GM-CSF-induced chemotaxis” value in assay [1] was “Neither M119 nor gallein blocked”. Moreover, in assay [2], the “effect on IL-8 regulated chemotaxis” value is listed as “blocked”.

As to `O=C(O)C1CCCCC1c1c2ccc(=O)c(O)c-2oc2c(O)c(O)ccc12` (centres unmarked) [Compound M119, cyclohexanecarboxylic acid, 2-(4,5,6-trihydroxy-3-oxo-3H-xanthen-9-yl)-(9cl)], the “effect on carbachol-dependent increases in Ca^2+” value in assay [3] was “no effect”. Also, in assay [1], the “effect on GM-CSF-induced chemotaxis” value is “Neither M119 nor gallein blocked”. Further, the IC50 (in general, the point on the concentration scale where inhibition reaches its midpoint) in the assay on PLCβ2 (read-out: IC50 for attenuation of Gβ1γ2-dependent activation of PLCβ2) came to 3000 nM. The “effect on direct binding of bGβ1γ2 to PLCβ3” value at PLCβ3-bGβ1γ2 interaction is “inhibited”. For the same compound, in assay [2], the “effect on IL-8 regulated chemotaxis” value is “blocked”. The “effect on morphine-dependent antinociception in PLCβ3 −/− mice” value in assay [4] is recorded as “no effect”. Also, in assay [5], the “number of vertical jumps in the 15-min counting period” value amounted to 23±14.

Regarding `O=C(O)C1CCCCC1c1c2ccc(=O)cc-2oc2cc(O)ccc12` (centres unmarked) [Compound M119B], in the assay on PLCβ2 (result in words), the “effect on Gβ1γ2-dependent activation of PLCβ2” value is reported as “did not have effects”. Moreover, the 50% inhibitory concentration (IC50) on Gβ1γ2 was more than 300 µM.
